Results: patent US20120058133A1, “INHIBITION OF TRNA SYNTHETASES AND THERAPEUTIC APPLICATIONS THEREOF” (President and Fellows of Harvard College, priority 2009, published 2012)
“Also recorded” adds a separate entry of the source.

Tests used:
[1] = system: GCN2 phosphorylation / AAR pathway; assay: AAR pathway activation in MEFs (GCN2, eIF2a phosphorylation, CHOP); assay type: cell-based, mouse; conditions: for reversal of GCN2 phosphorylation by cognate amino acid: 2 mM proline or 2 mM threonine; for GCN2 phosphorylation in fibroblasts: 2 hours, borrelidin 1 μM
Experimental: FIG. 24. Activation of the AAR in cells by HF/FF occurs through inhibition of proline utilization. FIG. 24A is a gel showing HF-induction of the AAR pathway is reversed by proline. MEFs were treated with the indicated concentration of HF or FF in the presence or absence of 2 mM Proline for 2 hours (left) or treated with 1 μM borrelidin in the presence or absence of 2 mM Threonine for 2 hours (right). Cells were lysed and assessed by anti-pGCN2 or anti-GCN2 Western blot. Data are representative of three separate experiments.
FIG. 24B is a gel showing HF induction of eIF2a phosphorylation and CHOP expression is GCN2 dependent. Wild Type or GCN2−/− MEFs were treated with 50 nM HF in the presence or absence of 2 mM proline. Cells were lysed at 2 hours post-HF addition (peIF2a) or 6 hours post-HF addition (CHOP) and analyzed for phosphoprotein or total protein levels by Western blot.

[2] = system: translation in rabbit reticulocyte lysate; assay: In vitro translation in rabbit reticulocyte lysate (RRL); assay type: biochemical; conditions: for translation of luciferase RNA in RRL: standard amino acid mix
Experimental: FIG. 23. HF and FF inhibit prolyl tRNA synthetase activity in vitro. […] Rabbit reticulocyte lysate (RRL) was incubated with luciferase mRNA and translation quantitated in a luminescence assay. A high concentration of mixed or individual amino acids (1 mM of each) was added to rescue translational inhibition. AA Mix 1: Asn, Arg, Val, Glu, Gly; AA Mix2: Lys, Ile, Tyr, Asp, Trp; Mix 3: His, Met, Leu, Ala, Thr; Mix 4: Ser, Phe, Pro, Gln. […] Note log scale of y axis.
Inhibitors (FIG. 22) and proline were assayed as described in FIG. 23A. Note log scale at Y axis. Error bars reflect standard deviation of triplicate determinations.
Short myc-tagged polypeptides of identical sequence (see Example 9, “Materials and Methods”) with the exception that NoPro lacks proline, while ProPro contains a proline dipeptide, were translated in RRL in the presence of indicated inhibitors. Translation was examined by anti-myc Western blot.
Note log scale of Y axis.
Translation in vitro was performed using rabbit reticulocyte lysates and luciferase mRNA as template. Translation was measured as arbitrary units of luciferase activity using a luminometer based luminescence assay. Log scale presentation of background-subtracted data is shown.

[3] = system: murine CD4+ CD25− T cells; assay: Th17 differentiation of activated CD4+ CD25− T cells (TGFβ plus IL-6; IL-17+ IFNγ− cells); assay type: cell-based, mouse; conditions: for IL-17 production / Th17 differentiation: 0.2 mM L-tryptophanol; for reversal of Th17 inhibition by threonine: 6 nM borrelidin, 0.5 mM threonine
Experimental: (§1) Purified CD4^+ CD25^− T cells were activated in vitro as previously described (Djuretic et al., Nat. Immunol. 8:145, 2007) using 0.3 μg/ml hamster anti-mouse CD3 (clone 145-2C11) (ATCC—Manassas, Va.) and 0.5 μg/ml hamster anti-mouse CD28 (BD Pharmingen—San Jose, Calif.). Activated cell cultures were differentiated using the following combinations of cytokines and antibodies: iTreg-recombinant human TGFβ1 (3 ng/ml—R&D systems, Minneapolis, Minn.), Th17-TGFβ1 (3 ng/ml) plus recombinant mouse IL-6 (30 ng/ml—R&D systems). Th1 and Th2 differentiation was performed as previously described (Djuretic et al., Nat. Immunol. 8:145, 2007). Human IL-2 supernatant (National Cancer Institute) was used in culture at 0.01 U/ml and was added at 48 hours-post activation when T cells were split into tissue culture wells lacking CD3 and CD28 antibodies, with the exception of Th17 cultures that were maintained in the absence of exogenous IL-2. CD8^+ T cells were activated with 1 μg/ml anti-CD3 and 1 μg/ml anti-CD28 and were expanded in 0.1 U/ml IL-2 until day 6 post activation. CD43-depleted B cells were activated in vitro by culturing with 25 μg/ml LPS (Sigma—St. Louis, Mo.) for 3-4 days in the presence or absence of TGFβ. All reagents (see below) were added at the time of T cell activation and again at 48 hours post activation unless indicated otherwise. For some experiments, purified CD4^+ CD25^− T cells, CD8^+ T cells or B cells were labeled with 1 μM CFSE (Invitrogen) prior to activation in accordance with manufacturer's instructions. Human T cell activation was performed by plating purified monocytes in a 96-well flat bottom plate at a concentration of 2×10^4 cells per well in complete medium overnight. 10^5 purified human memory T cells were added to monocyte cultures in the presence of soluble anti-CD3/anti-CD28 beads (Dynabeads, Invitrogen). T cells were expanded in the presence HF or MAZ1310 for up to 6 days.
MAZ1310 (Kamberov, Ph.D. Dissertation, Harvard University, 2008) was generated by chemical derivatization of halofuginone and was used at equal concentrations as a negative control. HF and MAZ1310 were prepared as 100 mM stock solutions in DMSO and diluted to the indicated concentrations. SB-431542 (Inman et al., Mol. Pharmacol. 62:65, 2002) (Tocris bioscience—Ellisville, Mo.) was prepared as a 10 mM stock solution in DMSO and was used in culture at 10 μM. L-tryptophanol was prepared as a 20 mM stock solution in 0.1 M NaOH, pH 7.4 and was used at 0.2 mM. For amino acid starvation experiments, T cells were activated and differentiated as above in D-MEM medium without L-cysteine and L-methionine (Invitrogen—Carlsbad, Calif.), or D-MEM medium without L-leucine. Stocks containing 20 mM L-cysteine (Sigma—St. Louis, Mo.) plus 10 mM L-methionine (Sigma), or 400 mM L-leucine (Sigma) were prepared in ddH2O, pH 1.0 and were added to medium at the indicated concentrations.
(§2) For detection of intracellular cytokines in murine cells, cultured T or B cells were stimulated with 10 nM PMA (Sigma) and […] (Sigma) for 4-5 hours in the presence of 10 mM brefeldin A (Sigma). Stimulated cells were harvested, washed with PBS and fixed with PBS plus 4% paraformaldehyde at room temperature for 20 minutes. Cells were then washed with PBS, permeabilized with PBS supplemented with 1% BSA and 0.5% saponin (Sigma) at room temperature for 10 minutes before cytokine-specific antibodies were added and incubated with cells for an additional 20 minutes at room temperature.

[4] = Cell-based assays (not specified)
TGFβ signaling = assay: Lymphocyte responses to TGFβ (Smad phosphorylation and others); assay type: cell-based, mouse; conditions: low dose HF; 10 μM SB-431542
Experimental: FIG. 8. […] FIG. 8A is a set of FACS analyses of CD4^+ CD25^− T cells activated in Th1 or Th2 polarizing conditions, either in the presence or absence of TGFβ. DMSO, 10 nM HF, 10 nM MAZ1310, or 10 μM SB-431542 added as indicated at the time of activation. Intracellular cytokine staining was performed on expanded T cells on day 5.
FIG. 8B is a set of FACS analyses of CD8^+ T cells activated in the presence or absence of TGFβ and cultured with DMSO, 10 nM HF, 10 nM MAZ1310, or 10 μM SB-431542. Expanded cells were restimulated on day 5 and intracellular staining was performed.
FIG. 8C is a set of FACS analyses of CFSE-labeled B cells activated by LPS stimulation in the presence or absence of TGFβ plus DMSO, 10 nM HF, 10 nM MAZ1310, or 10 μM SB-431542. Intracellular IL-6 production in B cells restimulated with PMA plus ionomycin, or cell-surface IgA expression was determined 4 days after activation.
FIG. 8D depicts western blot analyses of purified CD4^+ CD25^− T cells treated with DMSO, 40 nM MAZ1310, titrating concentrations of HF (2.5-40 nM) or 10 μM SB-431542 for 30 minutes in complete medium supplemented with 0.1% fetal calf serum. T cells were then activated in the presence or absence of 3 ng/ml TGFβ. Whole cell extracts were prepared after 1 hour of stimulation and western blot analyses were performed using the indicated antibodies. […]

[5] = system: mouse and human fibroblasts; assay: Collagen protein production in mouse and human fibroblasts; assay type: cell-based; conditions: data not shown
[6] = system: murine CD4+ CD25− T cells, CD8+ T cells, B cells; assay: T and B cell activation, proliferation, cytokine production and Th1/Th2/iTreg differentiation; assay type: cell-based, mouse; conditions: 3 ng/ml Borrelidin
Experimental: FIG. 2A, Left, is a graph showing dose response analyses performed on activated carboxyfluorescein succinimidyl ester (CFSE)-labeled CD4^+CD25^− T cells in the presence of DMSO, 40 nM MAZ1310, or increasing concentrations of halofuginone (HF) (1.25-40 nM). CFSE dilution and cell surface CD25 expression were determined 48 hours after activation. Intracellular cytokine production was determined on day 4 or 5 following restimulation with phorbol myristate acetate (PMA) and ionomycin. […] FIG. 2A, Right is a graph showing dose-response analyses of HF effects on CD8^+ T cell or B cell function. Cells were activated in the presence of DMSO, 40 nM MAZ1310, or increasing concentrations of HF (1.25-40 nM). CFSE dilution, cell surface CD25 expression, and intracellular cytokine production were determined as above 2-5 days after activation.
At approximately 10-fold higher concentrations (>20 nM), HF induced a general inhibition of T and B cell activation, proliferation, and effector function (FIG. 2A, 2B).
as §1
Cytokines secreted into media supernatant were measured using the mouse Th1/Th2 cytometric bead array (CBA—BD Pharmingen) in accordance with manufacturers instructions. Briefly, CD4+ CD25− T cells were activated in anti-CD3/anti-CD28-coated tissue culture wells (see above) and supernatants were collected at the indicated times.
as §2, with “temperature. […]” for “temperature.”

In the case of `O=C(C[C@H]1NCCC[C@@H]1O)Cn1cnc2ccccc2c1=O` [FF, febrifugine], the “reversal of GCN2 phosphorylation by cognate amino acid” value [1] is reported as “abrogated by the addition of 2 mM proline”, the “GCN2 phosphorylation in fibroblasts” value [1] is reported as “Stimulation of GCN2 phosphorylation” and the “translation of NoPro polypeptide” value [2] is reported as “had no effect on the translation of NoPro”. The “translation of ProPro polypeptide” value [2] was “prevented translation of ProPro”, the “rescue of translation inhibition by added purified EPRS” value ([2]; 80 ng or 0.5 μg EPRS) was “rescued HF/FF-inhibition of protein translation” and the “rescue of translation inhibition by added amino acids” value ([2]; excess amino acids (1-2 mM)) was “only proline could restore translation”. The “translation of luciferase RNA in RRL” value [2] was “inhibited the translation of luciferase RNA”.

In the case of `N[C@H](CO)Cc1c[nH]c2ccccc12` [L-tryptophanol], the “IL-17 production / Th17 differentiation” value [3] is reported as “impaired IL-17 production”, the “IL-17 production / Th17 differentiation” value ([3]; listed as tryptophanol) is reported as “inhibited Th17 differentiation” and the Th17 differentiation ([3]; 1 mM Tryptophanol) is reported as “inhibits Th17 differentiation”.

In the case of `CC(C)(C)OC(=O)N1CCC[C@H](O)[C@H]1CC(=O)Cn1cnc2cc(Br)c(Cl)cc2c1=O` [MAZ1310], the “translation of luciferase RNA in RRL” value [2] is reported as “no activity” and the “activity in cell-based assays” value [4] is reported as “lack activity”.

With `CC(=O)N1CCC[C@H](O)[C@H]1CC(=O)Cn1cnc2cc(Br)c(Cl)cc2c1=O` [MAZ1442] the “translation of luciferase RNA in RRL” value [2] was “no activity” and the “activity in cell-based assays” value [4] was “lack activity”.

In the case of `NC(=O)c1ccc(-c2nc(-c3ccc4c(c3)OCO4)c(-c3ccccn3)[nH]2)cc1` [SB-431542], the “TGFβ-induced Smad phosphorylation and other lymphocyte responses to TGFβ” value (TGFβ signaling) is reported as “abrogated all responses to TGFβ”.

In the case of `C[C@@H]1C[C@H](C)C[C@H](C)[C@@H](O)CC(=O)O[C@H]([C@@H]2CCC[C@H]2C(=O)O)C/C=C/C=C(/C#N)[C@H](O)[C@@H](C)C1` [borrelidin], the “reversal of GCN2 phosphorylation by cognate amino acid” value [1] is reported as “prevented by addition of an excess of its cognate amino acid threonine”, the “GCN2 phosphorylation in fibroblasts” value [1] is reported as “stimulate GCN2 phosphorylation” and the “production of collagen protein” value [5] is reported as “inhibited by borrelidin-treatment and rescued by the addition of threonine”. The “differentiation of Th1, Th2, or iTreg cells” value [6] was “without perturbing the differentiation of Th1, Th2, or iTreg cells”, the Th17 cell differentiation ([3]; 6 nM (3 ng/mL) borrelidin) was “Selectively Inhibits Th17 Differentiation; also recorded: inhibited Th17 cell differentiation” and the “reversal of Th17 inhibition by threonine” value [3] was “rescued by its cognate amino acid”. For the same compound, the “reversal of Th17 inhibition by threonine” value ([3]; listed as Borrelidin) was “reversed by the addition of threonine”.
